Values quoted from earlier work, collected in patent US8790688B2, “Wound care device for local treatment of pain in a wound” (Coloplast A/S, priority 2001, dated 2014).

Details: reported lowest range for systemic effect

SMILES	plasma concentration for systemic effect in the lowest range [µg/mL]
CN1C(C(=O)Nc2ccccn2)=C(O)c2ccccc2S1(=O)=O [Piroxicam]	1
CC(C(=O)O)c1cccc(C(=O)c2ccccc2)c1 (stereo not shown) [Ketoprofen]	3
CC(C)Cc1ccc(C(C)C(=O)O)cc1 (stereo not shown) [Ibuprofen]	10
CC(=O)Oc1ccccc1C(=O)O [Acetylsalicylic acid]	270
